For orientation: TGI means the concentration giving total growth inhibition. Read a high TGI as less potent growth arrest. One may read the GI50 as the concentration giving 50% growth inhibition.

Where “and” joins values, the source holds several entries; their conditions need not be identical. Identical values can stand only once.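 48-hour exposure; five concentrations; linearly interpolated endpoints. At the GI50, growth is halved. TGI is the concentration that stops growth completely.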 Some results are limits rather than exact numbers.

For 13 compounds, TGI and GI50 results are on record in PubChem BioAssay (NCI).

Test in all cases: DTP human tumour cell line panel, 48 h
Assay [1] has as its system HCC-2998 colon.
In assay [2] the test system is HCT-116 colon.
For assay [3], the system named is HCT-15 colon.
Assay [4] deals with LOX IMVI melanoma.
The subject of assay [5] is OVCAR-3 ovarian.
Assay [6] has as its system SN12C renal.
Assay [7] relates to TK-10 renal.
Assay [8] deals with U251 CNS.
Assay [9] has as its system UO-31 renal.
Assay [10] deals with NCI-H226 lung.

For the compound `NC(=O)C12CC3CC(CC(Br)(C3)C1)C2`, the TGI in [1], in [2], in assay [3], in [4], in assay [5] and in assay [6] was greater than 100 µM in each case. Also, the TGI in [7], in assay [8] and in assay [9] was greater than 100 µM throughout.

On to `CC1(C)CC2=C(Sc3ccccc3N2)C(=O)C1C(=O)C(=O)Nc1cc(Cl)ccc1Cl` (stereo unspecified), for which the TGI in assay [1], in [2], in assay [3], in assay [4], in assay [10] and in assay [5] was greater than 100 µM in each case. Further, the TGI in [6], in [8] and in [9] was greater than 100 µM throughout.

Consider `COC/N=C(/N)NC#N`, for which the total growth inhibition concentration (TGI) in [1] is greater than 100 µM; in [2], greater than 100 µM; in [3] it was 31 µM; in assay [10], greater than 100 µM; in assay [5], greater than 100 µM; in [6], greater than 100 µM. The total growth inhibition concentration (TGI) in assay [7], in [8] and in [9] was greater than 100 µM throughout.

Take `C/C(=C\Cc1cc(O)ccc1O)CCc1c(C)c(O)c(O)c(C=O)c1C`: the TGI is greater than 100 µM in assay [1]; 40.3 µM in assay [2]; greater than 100 µM in assay [3]; 98 µM in [10]; 43.2 µM in assay [5]; 77.8 µM in assay [6]. The TGI is greater than 100 µM in assay [7], 59.6 µM in assay [8] and 98.8 µM in [9].

As to `COc1ccc(Cc2nc3ccccc3s2)cc1OC`, the TGI in assay [1] turned out to be 49 µM; in assay [2] it was 29.2 µM; in [3] it was 60.7 µM; in [10] it was 45.7 µM; in assay [5], 31 µM; in [6] it was 30.8 µM. Also, the TGI in assay [7] is 84.7 µM; in assay [8], 27.7 µM; in [9], 30 µM.

For the compound `COc1cc(/C=C\c2ccncc2)cc(OC)c1OC`, the total growth inhibition concentration (TGI) in assay [2], in [3], in assay [4], in [10], in [5] and in assay [6] was greater than 100 µM each time. Further, the concentration for total growth inhibition (TGI) in [7], in [8] and in [9] was greater than 100 µM throughout.

For the compound `COC(=O)/C(C#N)=C1\CCc2ccccc21`, the TGI in assay [1], in assay [3], in assay [4], in assay [10], in [5] and in [6] was greater than 100 µM in each case. Moreover, the TGI in assay [7] and in [9] was greater than 100 µM throughout.

In the case of `COc1ccc(-c2ccc(/C=N/n3c(COc4ccccc4Cl)n[nH]c3=S)o2)c([N+](=O)[O-])c1`, the GI50 was 17.3 µM in assay [2]; 26.5 µM in assay [3]; 17.6 µM in [4]; 20.1 µM in assay [10]; 17.7 µM in [5]; 26.4 µM in assay [6]. Moreover, the GI50 was 13.2 µM in assay [7], 22 µM in [8] and 31.7 µM in assay [9]. In addition, the TGI in assay [2] came to 33.8 µM; in assay [3], 89.2 µM; in assay [4], 45.8 µM; in assay [10], 50.9 µM; in assay [5], 46.7 µM; in assay [6] it was 82.4 µM. Also, the concentration for total growth inhibition (TGI) was 39.5 µM in assay [7], 57.5 µM in [8] and greater than 100 µM in [9].

On to `O=C(Nc1ccccc1Cl)c1cccc(NC2=C(Cl)C(=O)N(Cc3ccccc3)C2=O)c1`, for which the GI50 in assay [1] was 20.5 µM; in assay [2], 3.18 µM; in assay [3], 14.1 µM; in assay [4] it was 7.96 µM; in assay [10] it was 4.45 µM; in assay [5], 12.5 µM. For the same compound, the GI50 in assay [8] was 21 µM; in assay [9], 4.91 µM. For the same compound, the TGI was 54.5 µM in assay [1]; 13.3 µM in [2]; greater than 100 µM in assay [3]; greater than 100 µM in assay [4]; 46.4 µM in assay [10]; 33.3 µM in assay [5]. In addition, the TGI is greater than 100 µM in assay [8] and 53.8 µM in assay [9].

With `CC1=NN(C(=O)c2ccc(Cl)cc2)C(=O)/C1=C/c1ccc(Cl)cc1`, the TGI in assay [1], in assay [2], in [4], in [5], in assay [6] and in assay [7] was greater than 100 µM each time. Also, the TGI in [8] and in assay [9] was greater than 100 µM each time.

Take `COc1ccc2c(c1)C(=O)c1c-2c(N2CCNCC2)nc2ccccc12`: the GI50 in [3] was 3.44 µM; in assay [4] it was 1.79 µM; in assay [10], 10.9 µM; in [5], 13 µM; in assay [6], 3.91 µM; in [7] it was 8.36 µM. Besides, the GI50 in [8] was 4.6 µM; in assay [9] it was 2.29 µM. Also, the TGI worked out at 11.8 µM in [3]; 3.5 µM in [4]; 28.9 µM in [10]; 30 µM in assay [5]; 14.9 µM in [6]; 23.6 µM in [7]. Further, the total growth inhibition concentration (TGI) in assay [8] amounted to 16.6 µM; in [9] it was 6.66 µM.

In the case of `CC(=O)Nc1ccc(C(=O)NN2C(=O)C(Cl)C2c2ccc(O)cc2)cc1` (stereo unspecified), the total growth inhibition concentration (TGI) in assay [2], in assay [3], in assay [4], in assay [10], in assay [5] and in assay [6] was greater than 100 µM in each case. Besides, the concentration for total growth inhibition (TGI) in assay [7], in [8] and in assay [9] was greater than 100 µM in each case.

In the case of `COc1cccc2c1[C@H]1CO[C@H]3C4C[C@H](C(=O)O)C([C@@H](C2)N13)N4C` (stereo partly specified), the GI50 in [1] is 0.593 µM; in assay [6] it was 0.884 µM; in [8] it was 0.5 µM. Also, the concentration for total growth inhibition (TGI) in assay [1] is 8.08 µM and 1.2 µM; in assay [3], 6.12 µM; in assay [4], 3.29 µM and > 23.9 µM; in assay [10], 5.59 µM; in [5], 2.99 µM and 3.94 µM; in assay [6], 8.32 µM and > 35.8 µM. The figures for the TGI in [7], in [8] and in [9] were 5.71 µM, 5.52 µM and 7.72 µM, respectively.
